From patent US10381110B2, “Molecules” (University of Dundee, priority 2010, dated 2019)
Where a name gives a salt, the structure may show the parent alone. Read-outs that look alike come from different tables or passages of the source.

Columns and labels:
Alpha1D = target: T1, Alpha1D (Homo sapiens, UniProt P25100); test: Primary radioligand binding assay (NIMH PDSP); conditions: primary radiobinding assay, [3H]Prazosin
T1 sequence (P25100 1-572): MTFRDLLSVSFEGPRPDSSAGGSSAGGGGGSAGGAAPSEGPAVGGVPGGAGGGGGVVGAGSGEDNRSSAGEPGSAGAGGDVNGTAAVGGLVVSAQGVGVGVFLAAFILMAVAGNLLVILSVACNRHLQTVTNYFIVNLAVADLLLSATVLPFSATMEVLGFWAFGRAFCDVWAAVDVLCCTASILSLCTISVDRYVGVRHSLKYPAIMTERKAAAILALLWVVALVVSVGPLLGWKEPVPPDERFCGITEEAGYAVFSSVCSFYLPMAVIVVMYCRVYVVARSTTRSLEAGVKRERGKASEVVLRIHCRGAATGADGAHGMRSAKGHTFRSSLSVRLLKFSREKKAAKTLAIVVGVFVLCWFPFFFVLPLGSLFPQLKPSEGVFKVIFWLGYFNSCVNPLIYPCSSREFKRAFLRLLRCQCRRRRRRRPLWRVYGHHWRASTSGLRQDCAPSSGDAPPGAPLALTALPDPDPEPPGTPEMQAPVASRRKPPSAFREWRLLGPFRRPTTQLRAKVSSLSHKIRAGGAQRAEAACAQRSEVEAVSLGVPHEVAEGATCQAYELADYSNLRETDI

α1A (Alpha1A) = target: T2, α1A (Alpha1A) (Homo sapiens, UniProt P35348); test: Secondary radioligand binding assay (Ki)
T2 sequence (P35348 1-466): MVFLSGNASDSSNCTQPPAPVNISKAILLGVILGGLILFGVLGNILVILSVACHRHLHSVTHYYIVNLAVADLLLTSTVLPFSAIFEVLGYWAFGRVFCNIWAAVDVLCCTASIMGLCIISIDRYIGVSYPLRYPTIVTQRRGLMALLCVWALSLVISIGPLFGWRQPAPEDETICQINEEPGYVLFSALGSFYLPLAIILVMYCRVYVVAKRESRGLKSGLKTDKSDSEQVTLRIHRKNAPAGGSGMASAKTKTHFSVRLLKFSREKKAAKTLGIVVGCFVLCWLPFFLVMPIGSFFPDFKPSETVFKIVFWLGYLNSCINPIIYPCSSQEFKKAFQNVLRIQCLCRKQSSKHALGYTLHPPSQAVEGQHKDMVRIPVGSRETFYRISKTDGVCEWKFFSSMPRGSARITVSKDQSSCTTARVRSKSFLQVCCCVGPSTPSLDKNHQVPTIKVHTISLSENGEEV
Method: (§1) Radioligand is diluted to five times the assay concentration (see Table 18) in Standard Binding Buffer. Typically, the assay concentration of radioligand is a value between one half the KD and the KD of a particular radioligand at its target. 50 μl aliquots of radioligand are dispensed into the wells of a 96-well plate containing 100 μl of Standard Binding Buffer. Then, duplicate 50 μl aliquots of the test and reference compound dilutions are added.
(§2) The 250 μl reactions are incubated at room temperature and shielded from light (to prevent photolysis of light-sensitive ligands) for 1.5 hours, then harvested by rapid filtration onto Whatman GF/B glass fiber filters pre-soaked with 0.3% polyethyleneimine using a 96-well Brandel harverster. Four rapid 500 μl washes are performed with chilled Standard Binding Buffer to reduce non-specific binding. Filters are placed in 6 ml scintillation tubes and allowed to dry overnight. The next day, 4 ml of EcoScint scintillation cocktail (National Diagnostics) are added to each tube. The tubes are capped, labeled, and counted by liquid scintillation counting. […] The filter mats are dried, then scintillant is melted onto the filters and the radioactivity retained on the filters is counted in a Microbeta scintillation counter.
(§3) Raw data (dpm) representing total radioligand binding (i.e. specific+non-specific binding) are plotted as a function of the logarithm of the molar concentration of the competitor (i.e. test or reference compound).
Adrenergic Receptors: α1A, α1B, α2A, α2B, α2C, β1, β2, β3
(§4) Membrane Fraction Source: Transiently or stably transfected cell lines (e.g. HEK293, COS, CHO, NIH3T3)
The method is carried out in the manner described for the serotonin receptor assay above, except where described below. Eleven dilutions (5× assay concentration) of the test and reference (see Table 20) compounds are prepared in the appropriate buffer by serial dilution, as previously described. Radioligand is diluted to five times the assay concentration (see Table 21) in the appropriate buffer.
The 250 μl reactions are incubated at room temperature and shielded from light (to prevent photolysis of light-sensitive ligands) for 1 hour (for α1 receptors, 40 min for α2 receptors, and 1.5 hours for β receptors), then harvested by rapid filtration onto Whatman GF/B glass fiber filters pre-soaked with 0.3% polyethyleneimine using a 96-well Brandel harverster. Four rapid 500-μl washes are performed with chilled distilled water (for α1 and β receptors) or 0.1% polyethyleneimine (for α2 receptors) to reduce non-specific binding. Filters are placed in 6 ml scintillation tubes and allowed to dry overnight and the samples are treated to obtain data as described above.

Alpha1A = target: T3, Alpha1A (Homo sapiens, UniProt P35348); test: Primary radioligand binding assay (NIMH PDSP); conditions: primary radiobinding assay, [3H]Prazosin; further: test concentration or dose not given here
T3 sequence (P35348 1-466): T2 sequence (P35348 1-466)

Alpha1B = target: T4, Alpha1B (Homo sapiens, UniProt P35368); test: Primary radioligand binding assay (NIMH PDSP); conditions: primary radiobinding assay, [3H]Prazosin; further: test concentration or dose not given here
T4 sequence (P35368 1-520): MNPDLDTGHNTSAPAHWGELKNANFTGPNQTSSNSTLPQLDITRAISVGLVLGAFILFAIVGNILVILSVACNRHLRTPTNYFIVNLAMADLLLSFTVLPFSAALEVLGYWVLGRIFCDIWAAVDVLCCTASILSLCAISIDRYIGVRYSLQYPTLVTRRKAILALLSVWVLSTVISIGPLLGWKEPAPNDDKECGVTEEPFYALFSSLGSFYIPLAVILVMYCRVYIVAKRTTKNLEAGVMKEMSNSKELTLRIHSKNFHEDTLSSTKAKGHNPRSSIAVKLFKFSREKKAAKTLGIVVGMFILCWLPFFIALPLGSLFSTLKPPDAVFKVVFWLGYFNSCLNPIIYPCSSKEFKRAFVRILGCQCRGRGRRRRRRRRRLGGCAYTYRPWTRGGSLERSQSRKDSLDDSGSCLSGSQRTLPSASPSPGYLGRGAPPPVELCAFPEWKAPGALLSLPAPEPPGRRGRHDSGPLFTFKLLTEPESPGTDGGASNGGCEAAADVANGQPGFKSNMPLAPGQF

dopamine D5 = dopamine D5 (Homo sapiens, UniProt P21918); test: Primary radioligand binding assay (NIMH PDSP); conditions: primary radiobinding assay, [3H]SCH233930; further: test concentration or dose not given here
5HT1a [1] = target: T5, 5HT1a (Homo sapiens, UniProt P08908); test: Secondary radioligand binding assay (Ki); conditions: for α1/D2: Table 24: Selectivity of 5HT1A over average of α1 Receptors; for α1A/D2 / α1B/D2 / α1D/D2: Table 24: Selectivity of 5HT1A over α1 Receptors, ratio of Ki
T5 sequence (P08908 1-422): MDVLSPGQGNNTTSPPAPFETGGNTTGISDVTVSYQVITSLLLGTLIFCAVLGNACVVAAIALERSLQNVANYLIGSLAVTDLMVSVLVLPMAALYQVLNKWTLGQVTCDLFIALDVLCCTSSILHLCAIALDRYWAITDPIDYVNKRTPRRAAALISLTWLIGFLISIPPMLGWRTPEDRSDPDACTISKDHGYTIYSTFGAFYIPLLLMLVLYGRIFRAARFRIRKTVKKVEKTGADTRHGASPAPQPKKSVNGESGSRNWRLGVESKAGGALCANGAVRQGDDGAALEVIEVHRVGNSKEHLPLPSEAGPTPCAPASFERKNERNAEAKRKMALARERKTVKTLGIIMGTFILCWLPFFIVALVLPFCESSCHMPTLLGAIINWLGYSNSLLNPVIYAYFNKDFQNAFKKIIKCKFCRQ
Method: (§5) Assay Buffer: Standard Binding Buffer (50 mM Tris-HCl, 10 mM MgCl2, 1 mM EDTA, pH 7.4)
(§6) Membrane Fraction Source: Transiently or stably transfected cell lines (e.g., HEK293, COS, CHO, NIH3T3)
as §1, §2, §3

dopamine D3 = dopamine D3 (Homo sapiens, UniProt P35462); test: Secondary radioligand binding assay (Ki); conditions: for α1/D2: Table 23: Selectivity of Dopamine D3 over average of α1 Receptors; for α1A/D2 / α1B/D2 / α1D/D2: Table 23: Selectivity of Dopamine D3 over α1 Receptors, ratio of Ki
Method: as §1, §2, §3
Assay Buffers: Dopamine Binding Buffer (50 mM NaCl, 50 mM HEPES-HCl, 5 mM MgCl2, 0.5 mM EDTA, pH 7.4)
as §4
The method is carried out in the manner described for the serotonin receptor assay above. Eleven dilutions (5× assay concentration) of the test and reference (see Table 19) compounds are prepared in Dopamine Binding Buffer by serial dilution, as previously described. Radioligand is diluted to five times the assay concentration (see Table 20) in Dopamine Binding Buffer.

5-HT2B = 5-HT2B (Homo sapiens, UniProt P41595); test: Secondary radioligand binding assay (Ki)
Method: as §5, §6, §1, §2, §3

5HT1a [2] = target: T5, 5HT1a; test: Primary radioligand binding assay (NIMH PDSP); conditions: primary radiobinding assay, [3H]8-OH-DPAT; further: test concentration or dose not given here
[3] = read-out: Experimental Receptor Binding Data-Ki ALPHA_1A, Table 25, GPCR panel
[4] = read-out: Experimental Receptor Binding Data-Ki D3, Table 25, GPCR panel

Chain of dopamine D3 (P35462 whole entry): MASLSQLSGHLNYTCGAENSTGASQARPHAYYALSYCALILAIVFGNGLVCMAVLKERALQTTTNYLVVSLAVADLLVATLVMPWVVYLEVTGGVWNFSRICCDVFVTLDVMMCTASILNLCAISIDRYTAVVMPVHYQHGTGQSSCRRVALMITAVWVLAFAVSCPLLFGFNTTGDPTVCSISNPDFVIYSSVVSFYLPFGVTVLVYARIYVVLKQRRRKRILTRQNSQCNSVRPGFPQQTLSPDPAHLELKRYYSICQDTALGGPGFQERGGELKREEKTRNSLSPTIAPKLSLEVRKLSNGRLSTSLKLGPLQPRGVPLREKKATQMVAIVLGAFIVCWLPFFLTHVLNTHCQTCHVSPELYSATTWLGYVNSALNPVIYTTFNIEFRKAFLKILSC
Chain of dopamine D5 (P21918 whole entry): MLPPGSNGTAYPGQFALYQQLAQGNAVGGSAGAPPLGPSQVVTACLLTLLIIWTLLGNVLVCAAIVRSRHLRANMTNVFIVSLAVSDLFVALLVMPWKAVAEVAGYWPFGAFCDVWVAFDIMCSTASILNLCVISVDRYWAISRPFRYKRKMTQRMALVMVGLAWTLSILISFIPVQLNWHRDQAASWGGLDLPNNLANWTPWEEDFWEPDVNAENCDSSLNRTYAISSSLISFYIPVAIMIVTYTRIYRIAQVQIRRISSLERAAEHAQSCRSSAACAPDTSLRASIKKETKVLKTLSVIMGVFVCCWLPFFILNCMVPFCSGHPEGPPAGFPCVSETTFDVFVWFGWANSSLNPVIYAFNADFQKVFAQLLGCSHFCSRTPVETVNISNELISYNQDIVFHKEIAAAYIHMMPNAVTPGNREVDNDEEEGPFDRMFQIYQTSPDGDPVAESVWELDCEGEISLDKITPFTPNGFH
Chain of 5-HT2B (P41595 whole entry, species assumed): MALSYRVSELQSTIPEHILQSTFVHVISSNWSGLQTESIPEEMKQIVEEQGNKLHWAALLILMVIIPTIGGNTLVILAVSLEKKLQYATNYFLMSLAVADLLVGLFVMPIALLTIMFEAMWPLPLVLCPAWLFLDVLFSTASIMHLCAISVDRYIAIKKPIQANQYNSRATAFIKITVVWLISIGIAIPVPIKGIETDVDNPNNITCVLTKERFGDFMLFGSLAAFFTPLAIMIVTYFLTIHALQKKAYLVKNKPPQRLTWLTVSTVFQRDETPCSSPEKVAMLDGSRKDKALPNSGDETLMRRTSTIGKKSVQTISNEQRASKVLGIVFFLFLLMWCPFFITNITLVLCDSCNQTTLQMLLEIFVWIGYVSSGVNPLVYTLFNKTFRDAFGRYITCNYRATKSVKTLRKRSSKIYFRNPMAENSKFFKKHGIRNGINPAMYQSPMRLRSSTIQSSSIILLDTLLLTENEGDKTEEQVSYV

Compound	Alpha1D (% inh) (Alpha1D)	Ki (α1A (Alpha1A); [3]) [µM]	Ki (α1A (Alpha1A); read-out: Kiα1A) [µM]	Alpha1A (% inh) (Alpha1A)	Alpha1B (% inh) (Alpha1B)	D5 (% inh) (dopamine D5)	Ki (5HT1a [1]) [µM]	α1/D2 (5HT1a [1])	α1A/D2 (5HT1a [1])	α1B/D2 (5HT1a [1])	α1D/D2 (5HT1a [1])	Ki (dopamine D3) [µM]	α1/D2 (dopamine D3)	α1A/D2 (dopamine D3)	α1B/D2 (dopamine D3)	α1D/D2 (dopamine D3)	Ki (5-HT2B) [µM]	5ht1a (% inh) (5HT1a [2])	Ki (dopamine D3; [4]) [µM]	Ki (dopamine D3; read-out: KiD3) [µM]	further results
COc1ccc2c(c1)C(=O)N(CCCN1CCN(c3ccccc3OC)CC1)C2 [GFR-VII-273]	99.3	0.0649	0.0649	102.2	102.5	31.8	0.0065	24.0	10.0	49.7	12.5	0.163	1.0	0.4	1.98	0.5	0.019	92.5	–	–	–
COc1ccc2c(c1)C(=O)N(CCN1CCN(c3ccccc3OC)CC1)C2 [GFR-VII-280-HCl]	98.7	–	–	101.5	101	6	0.0024	5.9	3.5	12.1	2.1	0.18	0.1	0.05	0.16	0.03	0.242	92	–	–	Ki (α1A (Alpha1A)): 0.0085 µM
COc1ccc2c(c1)C(=O)N(CCN1CCN(c3ccccc3OC)CC1)C2 [GFR-VII-280]	97.3	0.0159	0.0159	101.2	104.4	21.8	–	6.4	4.5	11.1	3.5	–	–	0.08	0.19	0.06	–	92.4	0.208	0.208	Ki (5HT1a [1]; read-out: Experimental Receptor Binding Data-Ki 5HT1A, Table 25, GPCR panel): 0.0035 µM; Ki (5HT1a [1]; read-out: Ki 5HT1A): 0.0035 µM; Ki (5-HT2B; read-out: Experimental Receptor Binding Data-Ki 5HT2B, Table 25, GPCR panel): 0.16 µM
COc1cc2c(cc1OC)C(=O)N(CCCCN1CCN(c3ccccc3OC)CC1)C2 [GFR-VII-285]	96.8	0.0009	0.0009	102.7	101.5	75.1	0.023	0.4	0.04	0.8	0.2	–	0.75	0.08	1.8	0.4	0.041	93.3	0.011	0.011	–
COc1ccc2c(c1)CN(CCCN1CCN(c3ccccc3OC)CC1)C2=O [GFR-VII-290]	100.5	0.0599	0.0599	99.1	52.4	32.5	–	12.7	3.2	32.0	2.9	–	1.6	0.4	4.0	0.37	0.117	98.3	0.152	0.152	Ki (5HT1a [1]; read-out: Ki 5HT1A): 0.019 µM
CC1Cc2ccccc2N1C(=O)CN1CCN(Cc2ccccc2)CC1 (centres unmarked) [STT-00185638, 2-[-4-(benzyl)-piperazin-1-yl]-1-(2-methy-2,3-dihydro-indol-1-yl)-ethanone]	42.8	–	–	69.1	16	9.7	7.08	–	–	–	–	3.22	–	–	–	–	0.879	64.9	–	–	Ki (α1A (Alpha1A)): 2.06 µM
